According to PubChem BioAssay AID2060508 (Molecular Pharmacology Branch, DTP, NCI, 2025):

test system: 454973-116-R2-J3-PDC spheroids, viability, % test/control; assay: Anticancer human tumor 454973-116-R2-J3-PDC patient-derived pancreatic carcinoma cell line growth inhibition [GQUAD]; conditions: second compound 0.0316 µM; first compound 3.16 µM; active compounds read low; spheroids with HUVEC and MSC
In short: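 Viability of tumor cells grown as complex spheroids with endothelial and stromal cells, exposed to drug combinations. Top concentration at or near clinical Cmax (else 10 microM), diluted in half-log increments.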
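Also: spheroids exposed to compounds for seven days; 100% = DMSO vehicle control viability.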

| Compound | viability, T/C [%] |
| --- | --- |
| COc1ncnc(C2CC2)c1-c1ncc2cnn(Cc3ccc(-c4nc(C(F)(F)F)cn4C(C)C)cc3)c2n1 + Cc1[nH]c2ccc(F)cc2c1-c1nc2c3cccnc3c3ncccc3c2[nH]1 | 96 |
| CC(C)n1c(=O)n(C)c2cnc3cc(F)c(-c4ccc(OCCCN5CCCCC5)nc4)cc3c21 + Cc1cnc(CNC(=O)c2c(=O)c3ccc(N4CCCN(C)CC4)nc3n3c2sc2ccccc23)cn1 | 56.8 |
| CC1COCCN1c1cc(-c2ccnn2C)c2ccnc(-c3ccn[nH]3)c2n1 (stereo unspecified) + Cc1cnc(CNC(=O)c2c(=O)c3ccc(N4CCCN(C)CC4)nc3n3c2sc2ccccc23)cn1 | 21.3 |
| CC1COCCN1c1cc(C2(S(C)(=N)=O)CC2)nc(-c2ccnc3[nH]ccc23)n1 (stereo unspecified) + Cc1cnc(CNC(=O)c2c(=O)c3ccc(N4CCCN(C)CC4)nc3n3c2sc2ccccc23)cn1 | 43.2 |

same assay, conditions: second compound 0.0316 µM; first compound 10 µM; active compounds read low; spheroids with HUVEC and MSC

| Compound | viability, T/C [%] |
| --- | --- |
| COc1ncnc(C2CC2)c1-c1ncc2cnn(Cc3ccc(-c4nc(C(F)(F)F)cn4C(C)C)cc3)c2n1 + Cc1[nH]c2ccc(F)cc2c1-c1nc2c3cccnc3c3ncccc3c2[nH]1 | 102 |
| CC(C)n1c(=O)n(C)c2cnc3cc(F)c(-c4ccc(OCCCN5CCCCC5)nc4)cc3c21 + Cc1cnc(CNC(=O)c2c(=O)c3ccc(N4CCCN(C)CC4)nc3n3c2sc2ccccc23)cn1 | 52.3 |
| CC1COCCN1c1cc(-c2ccnn2C)c2ccnc(-c3ccn[nH]3)c2n1 (stereo unspecified) + Cc1cnc(CNC(=O)c2c(=O)c3ccc(N4CCCN(C)CC4)nc3n3c2sc2ccccc23)cn1 | 21.7 |
| CC1COCCN1c1cc(C2(S(C)(=N)=O)CC2)nc(-c2ccnc3[nH]ccc23)n1 (stereo unspecified) + Cc1cnc(CNC(=O)c2c(=O)c3ccc(N4CCCN(C)CC4)nc3n3c2sc2ccccc23)cn1 | 21.6 |

same assay, conditions: second compound 0.1 µM; first compound 0.000999 µM; active compounds read low; spheroids with HUVEC and MSC

| Compound | viability, T/C [%] |
| --- | --- |
| Cn1ncnc1[C@H]1c2n[nH]c(=O)c3cc(F)cc(c23)N[C@@H]1c1ccc(F)cc1 + Cc1cnc(CNC(=O)c2c(=O)c3ccc(N4CCCN(C)CC4)nc3n3c2sc2ccccc23)cn1 | 83.1 |

same assay, conditions: second compound 0.1 µM; first compound 0.00316 µM; active compounds read low; spheroids with HUVEC and MSC

| Compound | viability, T/C [%] |
| --- | --- |
| Cn1ncnc1[C@H]1c2n[nH]c(=O)c3cc(F)cc(c23)N[C@@H]1c1ccc(F)cc1 + Cc1cnc(CNC(=O)c2c(=O)c3ccc(N4CCCN(C)CC4)nc3n3c2sc2ccccc23)cn1 | 88.3 |

same assay, conditions: second compound 0.1 µM; first compound 0.00999 µM; active compounds read low; spheroids with HUVEC and MSC

| Compound | viability, T/C [%] |
| --- | --- |
| Cn1ncnc1[C@H]1c2n[nH]c(=O)c3cc(F)cc(c23)N[C@@H]1c1ccc(F)cc1 + Cc1cnc(CNC(=O)c2c(=O)c3ccc(N4CCCN(C)CC4)nc3n3c2sc2ccccc23)cn1 | 71.8 |

same assay, conditions: second compound 0.1 µM; first compound 0.0316 µM; active compounds read low; spheroids with HUVEC and MSC

| Compound | viability, T/C [%] |
| --- | --- |
| COc1ncnc(C2CC2)c1-c1ncc2cnn(Cc3ccc(-c4nc(C(F)(F)F)cn4C(C)C)cc3)c2n1 + Cc1[nH]c2ccc(F)cc2c1-c1nc2c3cccnc3c3ncccc3c2[nH]1 | 126 |
| CC(C)n1c(=O)n(C)c2cnc3cc(F)c(-c4ccc(OCCCN5CCCCC5)nc4)cc3c21 + Cc1cnc(CNC(=O)c2c(=O)c3ccc(N4CCCN(C)CC4)nc3n3c2sc2ccccc23)cn1 | 43 |
| CC1COCCN1c1cc(-c2ccnn2C)c2ccnc(-c3ccn[nH]3)c2n1 (stereo unspecified) + Cc1cnc(CNC(=O)c2c(=O)c3ccc(N4CCCN(C)CC4)nc3n3c2sc2ccccc23)cn1 | 35.7 |
| CC1COCCN1c1cc(C2(S(C)(=N)=O)CC2)nc(-c2ccnc3[nH]ccc23)n1 (stereo unspecified) + Cc1cnc(CNC(=O)c2c(=O)c3ccc(N4CCCN(C)CC4)nc3n3c2sc2ccccc23)cn1 | 90.9 |
| Cn1ncnc1[C@H]1c2n[nH]c(=O)c3cc(F)cc(c23)N[C@@H]1c1ccc(F)cc1 + Cc1cnc(CNC(=O)c2c(=O)c3ccc(N4CCCN(C)CC4)nc3n3c2sc2ccccc23)cn1 | 60 |

same assay, conditions: second compound 0.1 µM; first compound 0.0999 µM; active compounds read low; spheroids with HUVEC and MSC

| Compound | viability, T/C [%] |
| --- | --- |
| Cn1ncnc1[C@H]1c2n[nH]c(=O)c3cc(F)cc(c23)N[C@@H]1c1ccc(F)cc1 + Cc1cnc(CNC(=O)c2c(=O)c3ccc(N4CCCN(C)CC4)nc3n3c2sc2ccccc23)cn1 | 48.8 |

same assay, conditions: second compound 0.1 µM; first compound 0.1 µM; active compounds read low; spheroids with HUVEC and MSC

| Compound | viability, T/C [%] |
| --- | --- |
| COc1ncnc(C2CC2)c1-c1ncc2cnn(Cc3ccc(-c4nc(C(F)(F)F)cn4C(C)C)cc3)c2n1 + Cc1[nH]c2ccc(F)cc2c1-c1nc2c3cccnc3c3ncccc3c2[nH]1 | 102 |
| CC(C)n1c(=O)n(C)c2cnc3cc(F)c(-c4ccc(OCCCN5CCCCC5)nc4)cc3c21 + Cc1cnc(CNC(=O)c2c(=O)c3ccc(N4CCCN(C)CC4)nc3n3c2sc2ccccc23)cn1 | 35.6 |
| CC1COCCN1c1cc(-c2ccnn2C)c2ccnc(-c3ccn[nH]3)c2n1 (stereo unspecified) + Cc1cnc(CNC(=O)c2c(=O)c3ccc(N4CCCN(C)CC4)nc3n3c2sc2ccccc23)cn1 | 23.1 |
| CC1COCCN1c1cc(C2(S(C)(=N)=O)CC2)nc(-c2ccnc3[nH]ccc23)n1 (stereo unspecified) + Cc1cnc(CNC(=O)c2c(=O)c3ccc(N4CCCN(C)CC4)nc3n3c2sc2ccccc23)cn1 | 81.9 |

same assay, conditions: second compound 0.1 µM; first compound 0.316 µM; active compounds read low; spheroids with HUVEC and MSC

| Compound | viability, T/C [%] |
| --- | --- |
| COc1ncnc(C2CC2)c1-c1ncc2cnn(Cc3ccc(-c4nc(C(F)(F)F)cn4C(C)C)cc3)c2n1 + Cc1[nH]c2ccc(F)cc2c1-c1nc2c3cccnc3c3ncccc3c2[nH]1 | 107 |
| CC(C)n1c(=O)n(C)c2cnc3cc(F)c(-c4ccc(OCCCN5CCCCC5)nc4)cc3c21 + Cc1cnc(CNC(=O)c2c(=O)c3ccc(N4CCCN(C)CC4)nc3n3c2sc2ccccc23)cn1 | 36.5 |
| CC1COCCN1c1cc(-c2ccnn2C)c2ccnc(-c3ccn[nH]3)c2n1 (stereo unspecified) + Cc1cnc(CNC(=O)c2c(=O)c3ccc(N4CCCN(C)CC4)nc3n3c2sc2ccccc23)cn1 | 18.9 |
| CC1COCCN1c1cc(C2(S(C)(=N)=O)CC2)nc(-c2ccnc3[nH]ccc23)n1 (stereo unspecified) + Cc1cnc(CNC(=O)c2c(=O)c3ccc(N4CCCN(C)CC4)nc3n3c2sc2ccccc23)cn1 | 74.2 |
| Cn1ncnc1[C@H]1c2n[nH]c(=O)c3cc(F)cc(c23)N[C@@H]1c1ccc(F)cc1 + Cc1cnc(CNC(=O)c2c(=O)c3ccc(N4CCCN(C)CC4)nc3n3c2sc2ccccc23)cn1 | 36.6 |
